Data as given in ChEMBL document CHEMBL3885881, “DrugMatrix”.

Species: Rattus norvegicus
Assay: DrugMatrix - Regimen: Daily Repeat
Format: toxicity, organism-based, Sprague-Dawley
Design: regimen Daily Repeat, gender Male, age 6-8 weeks
Conditions: in vivo, po, route oral GAVAGE, […]; for ABSOLUTE BASOPHIL / ABSOLUTE EOSINOPHIL / ABSOLUTE LYMPHOCYTE / ABSOLUTE MONOCYTE / ABSOLUTE SEGMENTED NEUTROPHIL / BASOPHIL / EOSINOPHIL / ERYTHROCYTE COUNT / HEMATOCRIT / HEMOGLOBIN / LEUKOCYTE COUNT / LYMPHOCYTE / MEAN CORPUSCULAR HEMOGLOBIN / MEAN CORPUSCULAR HEMOGLOBIN CONCENTRATION / MEAN CORPUSCULAR VOLUME / MONOCYTE / NEUTROPHIL / NUCLEATED RED BLOOD CELLS / PLATELET COUNT: tissue Blood; for ALANINE AMINOTRANSFERASE / ALBUMIN / ALKALINE PHOSPHATASE / ASPARTATE AMINOTRANSFERASE / BLOOD UREA NITROGEN / CARBON DIOXIDE / CHLORIDE / CHOLESTEROL / CREATINE PHOSPHOKINASE / CREATININE / GLUCOSE / LACTATE DEHYDROGENASE / LIPASE / PHOSPHORUS / POTASSIUM / SODIUM / TOTAL BILIRUBIN / TOTAL PROTEIN / URIC ACID: tissue Plasma
[1] = 0 mg/kg, 72 h, dose level Control, time 3 day
[2] = 0 mg/kg, 120 h, dose level Control, time 5 day
[3] = 30 mg/kg, 72 h, dose level Low, time 3 day

COC1=CC(=O)C[C@@H](C)[C@]12Oc1c(Cl)c(OC)cc(OC)c1C2=O [GRISEOFULVIN]
ABSOLUTE BASOPHIL [1]: 0 CELLS/uL
ABSOLUTE EOSINOPHIL [1]: 0 CELLS/uL
ABSOLUTE LYMPHOCYTE [1]: 14687.67 CELLS/uL
ABSOLUTE MONOCYTE [1]: 164 CELLS/uL
ABSOLUTE SEGMENTED NEUTROPHIL [1]: 1748.33 CELLS/uL
BASOPHIL [1]: 0%
EOSINOPHIL [1]: 0%
ERYTHROCYTE COUNT [1]: 5.51 x10E6/uL
HEMATOCRIT [1]: 33.68%
HEMOGLOBIN [1]: 13.4 G/DL
LEUKOCYTE COUNT [1]: 16.6 x10E3/uL
LYMPHOCYTE [1]: 88.83%
MEAN CORPUSCULAR HEMOGLOBIN [1]: 24.47 pg
MEAN CORPUSCULAR HEMOGLOBIN CONCENTRATION [1]: 39.82 G/DL
MEAN CORPUSCULAR VOLUME [1]: 61.23 fL
MONOCYTE [1]: 0.83%
NEUTROPHIL [1]: 10.33%
NUCLEATED RED BLOOD CELLS [1]: 0 /100WBC
PLATELET COUNT [1]: 1329.67 x10E3/uL
ALANINE AMINOTRANSFERASE [1]: 61.33 u/L
ALBUMIN [1]: 4.18 G/DL
ALKALINE PHOSPHATASE [1]: 332.5 u/L
ASPARTATE AMINOTRANSFERASE [1]: 98.33 u/L
BLOOD UREA NITROGEN [1]: 15.83 mg/dL
CARBON DIOXIDE [1]: 27.83 mmol/L
CHLORIDE [1]: 100 MEQ/L
CHOLESTEROL [1]: 76.17 mg/dL
CREATINE PHOSPHOKINASE [1]: 729.17 u/L
CREATININE [1]: 0.21 mg/dL
GLUCOSE [1]: 151.83 mg/dL
LACTATE DEHYDROGENASE [1]: 484.67 u/L
LIPASE [1]: 10 u/L
PHOSPHORUS [1]: 11.3 mg/dL
POTASSIUM [1]: 6.1 MEQ/L
SODIUM [1]: 142.9 MEQ/L
TOTAL BILIRUBIN [1]: 0.23 mg/dL
TOTAL PROTEIN [1]: 5.68 G/DL
URIC ACID [1]: 1.75 mg/dL
ABSOLUTE BASOPHIL [2]: 0 CELLS/uL
ABSOLUTE EOSINOPHIL [2]: 58.67 CELLS/uL
ABSOLUTE LYMPHOCYTE [2]: 15950.83 CELLS/uL
ABSOLUTE MONOCYTE [2]: 172.5 CELLS/uL
ABSOLUTE SEGMENTED NEUTROPHIL [2]: 2551.33 CELLS/uL
BASOPHIL [2]: 0%
EOSINOPHIL [2]: 0.33%
ERYTHROCYTE COUNT [2]: 5.5 x10E6/uL
HEMATOCRIT [2]: 34.05%
HEMOGLOBIN [2]: 13.42 G/DL
LEUKOCYTE COUNT [2]: 18.73 x10E3/uL
LYMPHOCYTE [2]: 84.5%
MEAN CORPUSCULAR HEMOGLOBIN [2]: 24.42 pg
MEAN CORPUSCULAR HEMOGLOBIN CONCENTRATION [2]: 39.42 G/DL
MEAN CORPUSCULAR VOLUME [2]: 61.97 fL
MONOCYTE [2]: 1%
NEUTROPHIL [2]: 14.17%
NUCLEATED RED BLOOD CELLS [2]: 0.33 /100WBC
PLATELET COUNT [2]: 1143.17 x10E3/uL
ALANINE AMINOTRANSFERASE [2]: 57 u/L
ALBUMIN [2]: 4.17 G/DL
ALKALINE PHOSPHATASE [2]: 347.33 u/L
ASPARTATE AMINOTRANSFERASE [2]: 93.67 u/L
BLOOD UREA NITROGEN [2]: 15.67 mg/dL
CARBON DIOXIDE [2]: 27.17 mmol/L
CHLORIDE [2]: 104.33 MEQ/L
CHOLESTEROL [2]: 69.5 mg/dL
CREATINE PHOSPHOKINASE [2]: 317.17 u/L
CREATININE [2]: 0.2 mg/dL
GLUCOSE [2]: 162.33 mg/dL
LACTATE DEHYDROGENASE [2]: 408.67 u/L
LIPASE [2]: 10.17 u/L
PHOSPHORUS [2]: 11.08 mg/dL
POTASSIUM [2]: 6.36 MEQ/L
SODIUM [2]: 146.07 MEQ/L
TOTAL BILIRUBIN [2]: 0.22 mg/dL
TOTAL PROTEIN [2]: 5.92 G/DL
URIC ACID [2]: 1.47 mg/dL
ABSOLUTE BASOPHIL [3]: 0 CELLS/uL
ABSOLUTE EOSINOPHIL [3]: 0 CELLS/uL
ABSOLUTE LYMPHOCYTE [3]: 15609 CELLS/uL
ABSOLUTE MONOCYTE [3]: 50.67 CELLS/uL
ABSOLUTE SEGMENTED NEUTROPHIL [3]: 2173.67 CELLS/uL
BASOPHIL [3]: 0%
EOSINOPHIL [3]: 0%
ERYTHROCYTE COUNT [3]: 5.42 x10E6/uL
HEMATOCRIT [3]: 34.33%
HEMOGLOBIN [3]: 13.33 G/DL
LEUKOCYTE COUNT [3]: 17.83 x10E3/uL
LYMPHOCYTE [3]: 87.67%
MEAN CORPUSCULAR HEMOGLOBIN [3]: 24.6 pg
MEAN CORPUSCULAR HEMOGLOBIN CONCENTRATION [3]: 38.9 G/DL
MEAN CORPUSCULAR VOLUME [3]: 63.3 fL
MONOCYTE [3]: 0.33%
NEUTROPHIL [3]: 12%
NUCLEATED RED BLOOD CELLS [3]: 0 /100WBC
PLATELET COUNT [3]: 1271.33 x10E3/uL
ALANINE AMINOTRANSFERASE [3]: 68.33 u/L
ALBUMIN [3]: 3.87 G/DL
ALKALINE PHOSPHATASE [3]: 322.67 u/L
ASPARTATE AMINOTRANSFERASE [3]: 105.67 u/L
BLOOD UREA NITROGEN [3]: 16 mg/dL
CARBON DIOXIDE [3]: 30.33 mmol/L
CHLORIDE [3]: 103 MEQ/L
CHOLESTEROL [3]: 72.67 mg/dL
CREATINE PHOSPHOKINASE [3]: 481 u/L
CREATININE [3]: 0.24 mg/dL
GLUCOSE [3]: 139.67 mg/dL
LACTATE DEHYDROGENASE [3]: 535 u/L
LIPASE [3]: 10 u/L
PHOSPHORUS [3]: 11.37 mg/dL
POTASSIUM [3]: 6.77 MEQ/L
SODIUM [3]: 145.27 MEQ/L
TOTAL BILIRUBIN [3]: 0.2 mg/dL
TOTAL PROTEIN [3]: 5.3 G/DL
URIC ACID [3]: 1.6 mg/dL
